From ChEMBL document CHEMBL5375976, “Discovery of Inhibitory Fragments That Selectively Target Spire2-FMN2 Interaction” (J Med Chem, 2023)

Target: T1, Fermitin family homolog 2 (Homo sapiens) (UniProt Q96AC1)
T1 sequence (whole entry): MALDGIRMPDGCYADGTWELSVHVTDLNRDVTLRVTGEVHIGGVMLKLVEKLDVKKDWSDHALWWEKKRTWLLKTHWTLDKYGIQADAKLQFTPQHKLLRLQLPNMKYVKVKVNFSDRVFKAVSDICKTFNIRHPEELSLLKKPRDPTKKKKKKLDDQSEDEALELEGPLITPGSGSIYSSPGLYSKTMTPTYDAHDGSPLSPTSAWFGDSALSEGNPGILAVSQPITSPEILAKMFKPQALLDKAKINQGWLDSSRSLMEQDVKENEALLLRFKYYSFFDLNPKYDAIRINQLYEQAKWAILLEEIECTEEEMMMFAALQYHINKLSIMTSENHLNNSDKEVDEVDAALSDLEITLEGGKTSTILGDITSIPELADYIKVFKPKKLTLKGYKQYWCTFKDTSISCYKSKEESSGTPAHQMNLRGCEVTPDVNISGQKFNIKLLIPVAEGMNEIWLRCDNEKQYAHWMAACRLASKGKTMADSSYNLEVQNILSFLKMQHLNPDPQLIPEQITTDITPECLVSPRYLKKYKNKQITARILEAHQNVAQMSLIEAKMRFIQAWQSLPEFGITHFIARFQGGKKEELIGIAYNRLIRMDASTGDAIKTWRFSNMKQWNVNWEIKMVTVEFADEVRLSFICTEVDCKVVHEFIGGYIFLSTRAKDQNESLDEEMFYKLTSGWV
Description: Binding affinity to His6-tagged KIND2 (unknown origin) expressed in Escherichia coli BL21(DE3) assessed as change in melting temperature by DSF analysis

NCCNc1ccnc2cc(OCc3ccccc3)ccc12 showed a ΔTm of 0 °C.
